{"source": "patent US20160201132A1", "about": "“GENE EXPRESSION BIOMARKERS OF LAQUINIMOD RESPONSIVENESS” (Teva Pharmaceutical Industries Ltd., priority 2013, published 2016)", "type_in_all_cases": "in vivo, human", "key": {"PAI-1 (Serpine 1)": {"tested_on": "PAI-1 (Serpine 1)", "experiment": "Western blot verification of PAI-1 (Serpine 1) protein in PBMC of LAQ-treated patients", "details": "four out of five patients, after 6 months of LAQ treatment", "experimental": "FIG. 6: Expression of PAI-1 (Serpine 1) in PBMCs of patients following treatment with LAQ. Protein samples were prepared from phenol/ethanol fractions of PBMCs derived from patients after 6 month of LAQ treatment (+) and compare to PBMCs samples of the same patients before treatment (−) (A). From each sample […] was separated on 10% SDS-PAGE. Blots were incubated with Rabbit a-PAI-1 (1:500) and mouse Tubulin (1:500). The signal intensities of a protein band and its surrounding background were scanned for each protein and quantified by using Quantity One 4.6.9 software. The resultant background-subtracted values of protein expression were normalized to those of Tubulin and then plotted as the relative protein levels for each patient with or without LAQ treatment (B).\nFor verification of key genes on protein level Western blot analysis was performed. Supernatant was collected and protein concentration was determined using a Bradford assay (Pierce, Rockford, Ill., USA) according the manufacturer's guidelines. Equal amounts of protein were suspended in sample buffer and boiled for 5 min. Cell lysates were resolved on 10% SDS-polyacrylamide gel electrophoresis (PAGE). […] The blots were then washed three times with TBST buffer and analyzed by standard chemiluminescence (Supersignal Kit, Pierce, Rockford, Ill., USA) according to the company's protocol."}, "TGFB1": {"tested_on": "TGFB1", "experiment": "Western blot verification of TGFB1 (TGFb) protein in PBMC of LAQ-treated RRMS patients", "experimental": "FIG. 5: Expression of TGFB1 in PBMCs of RRMS patients following treatment with LAQ. Protein samples ([…]) were prepared from phenol/ethanol fractions of PBMCs derived from patients after 6 month of LAQ treatment (+) and compared to PBMCs samples of the same patients before treatment (−) (FIGS. 5A and 5C). From each sample 30 ug was separated on 10% SDS-PAGE. Blots were incubated with Rabbit a-TGFb1 (1:250) and mouse Tubulin (1:500). The signal intensities of a protein band and its surrounding background were scanned for each protein and quantified by using Quantity One 4.6.9 software (Bio-Rad Laboratories, Hercules, Calif.). […] The signal intensity of a protein bands were quantified by Quantity One 4.6.9 software. The resultant background-subtracted values of protein expression were normalized to those of Tubulin and then calculated as the relative protein levels for each patient before or after LAQ treatment. The blot images in A, B and C are representative of two out of five analyzed patients showing down regulation of TGFb, ITGB1 and CXCR1, respectively as also quantified by densitometry of bands analyzed from five patients. […] Supernatant was collected and protein concentration was determined using a Bradford assay (Pierce, Rockford, Ill., USA) according the manufacturer's guidelines. […]"}, "ITGB1": {"tested_on": "ITGB1", "experiment": "Western blot verification of ITGB1 protein in PBMC of LAQ-treated RRMS patients", "details": "six months of LAQ treatment vs baseline, n=5", "experimental": "(§1) FIG. 10: Expression of TGFb, ITGB1 and CXCR1 in RRMS patients treated with LAQ. Protein extracts were prepared from PBMCs samples derived from RRMS patients before treatment (black bars) and compared to PBMCs samples of the same patients after six months of LAQ treatment (white bars). The signal intensity of a protein bands were quantified by Quantity One 4.6.9 software. The resultant background-subtracted values of protein expression were normalized to those of Tubulin and then calculated as the relative protein levels for each patient before or after LAQ treatment. The blot images in A, B and C are representative of two out of five analyzed patients showing down regulation of TGFb, ITGB1 and CXCR1, respectively as also quantified by densitometry of bands analyzed from five patients. Data are presented as mean±SEM. Statistically significant differences are marked in graphs (n=5, paired one-tailed t-test). Protein fractions were purified from PBMC of 5 patients at baseline and after six months of LAQ treatment. Proteins were extracted from TRIZOL fractions and solubilized following the method reported by Hummon et al., 2007 (Hummon et al., 2007). […] Blots were analyzed by standard chemi-luminescence (Supersignal Kit, Pierce, Rockford, Ill., USA) and visualization was done by ChemiDoc™ XRS System (Bio-Rad)."}, "CXCR1": {"tested_on": "CXCR1", "experiment": "Western blot verification of CXCR1 protein in PBMC of LAQ-treated RRMS patients", "details": "six months of LAQ treatment vs baseline, n=5", "experimental": "as §1"}}}
{"smiles": "CCN(C(=O)c1c(O)c2c(Cl)cccc2n(C)c1=O)c1ccccc1", "note": "[LAQ, 5-chloro-N-ethyl-4-hydroxy-1-methyl-2-oxo-N-phenyl-1,2-dihydroquinoline-3-carboxamide]", "values": [{"measurement": "reduced expression of PAI-1 protein (band intensities normalized against tubulin)", "setting": "PAI-1 (Serpine 1)", "result": "30-50%"}, {"measurement": "down-regulation of TGFB1 protein level (band intensities normalized against Tubulin)", "setting": "TGFB1; four out of five patients, 6 months of LAQ treatment vs before treatment", "result": "20-50%"}, {"measurement": "TGFb protein suppressed by (quantification of bands intensities)", "setting": "TGFB1; six months of LAQ treatment vs baseline, n=5", "result": 69.0, "unit": "%"}, {"measurement": "down regulation of ITGB1 protein", "setting": "ITGB1", "result": 40, "unit": "%"}, {"measurement": "down regulation of CXCR1 protein", "setting": "CXCR1", "result": 24.7, "unit": "%"}]}
